# Experimental data from patent US20200148635A1 (priority 2017, published 2020).
# How the values were obtained:
# [1] = test system: Fusarium culmorum; assay: In vitro test Fusarium culmorum (foot rot of cereals), radial growth on Potato Dextrose Agar; type: cell-based; conditions: 300 ppm, agar plate, 25° C., seven days
# Experimental: Fusarium culmorum (Foot Rot of Cereals):
# (§1) Compounds were dissolved in 0.3% DMSO and then added to Potato Dextrose Agar medium just prior to dispensing it into petri dishes. 5 mL medium with compound in the desired concentration was dispensed into 60 mm sterile Petri-plates. After solidification each plate was seeded with 5 mm size mycelial disc taken form periphery of actively growing virulent culture plate. Plates were incubated in growth chambers at 25° C. temperature and 60% relative humidity for seven days and radial growth was measured.
# [2] = test system: Alternaria solani; assay: In vitro test Alternaria solani (early blight of tomato/potato), radial growth on Potato Dextrose Agar; type: cell-based; conditions: 168 h, agar plate, 25° C., seven days, read-out: control compared to the untreated check
# Experimental: as §1, with “Alternaria solani (early blight of tomato/potato): Compounds” for “Compounds”, “Petri” for “petri”
# [3] = test system: Phakopsora pachyrhizi; assay: Greenhouse Phakopsora pachyrhizi test in soybean, preventive; type: in vivo; conditions: preventive spray on soybean plants, inoculated one day after treatment with Phakopsora pachyrhizi, read-out: control compared to the untreated check
# Experimental: Phakopsora pachyrhizi Test in Soybean
# Compounds were dissolved in 2% DMSO/Acetone and then mixed with water to the calibrated spray volume of 50 mL and poured into the spray bottles for further applications.
# (§2) To test the preventive activity of compounds, healthy young soybean plants raised in the greenhouse were sprayed with active compound preparation at the stated application rates inside the spray cabinets using hallowcone nozzles. One day after treatment, the plants were inoculated with spore suspension containing 2.1×10^6 Phakopsora pachyrhizi inoculum. The inoculated plants were then kept in greenhouse chamber at 25° C. temperature and 90% relative humidity for disease expression.
# (§3) A visual assessment of compound's performance was carried out by rating the disease severity (0-100% scale) on treated plants on 3, 7, 10 and 15 days after application. Efficacy (% control) of the compounds was calculated by comparing the disease rating in the treatment with the one of the untreated control. The sprayed plants were also assessed for compound's plant compatibility by recording symptoms like necrosis, chlorosis and stunting.
# [4] = test system: Bortytis cinera; assay: Greenhouse Bortytis cinera test in tomato, preventive; type: in vivo; conditions: Solanum lycopersicum, preventive spray on tomato plants, inoculated one day after treatment with Bortytis cinera, read-out: control compared to the untreated check
# Experimental: Bortytis cinera Test in Tomato
# Compounds were dissolved in 2% DMSO/Acetone and then mixed with water to calibrated spray volume of 50 mL. This 50 mL spray solution was poured into the spray bottles for further applications.
# as §2, with “tomato” for “soybean”, “suspension (2% Malt)” for “suspension”, “1.2×10^6 Bortytis cinera” for “2.1×10^6 Phakopsora pachyrhizi”, “18-20°” for “25°”, “90-100%” for “90%”
# as §3, with “carried” for “carried out”, “with” for “with the one of the”, “phytotoxic effects” for “plant compatibility”
# [5] = test system: Rhizoctonia solani; assay: In vitro test Rhizoctonia solani (rice sheath blight/potato black scurf), radial growth on Potato Dextrose Agar; type: cell-based; conditions: 168 h, agar plate, 25° C., seven days, read-out: control compared to the untreated check
# Experimental: Rhizoctonia solani (Rice Sheath Blight/Potato Black Scurf):
# as §1, with “Petri” for “petri”
# [6] = test system: Pyricularia oryzae; assay: microbe, parasite or virus in culture; type: cell-based; conditions: 168 h, read-out: control compared to the untreated check
# [7] = test system: Septoria lycopersici; assay: In vitro test Septoria lycopersici (leaf spot of tomato), radial growth on Potato Dextrose Agar; type: cell-based; conditions: 168 h, agar plate, 25° C., seven days, read-out: control compared to the untreated check
# Experimental: Septoria lycopersici (Leaf Spot of Tomato):
# as §1, with “Petri” for “petri”, “70%” for “60%”
Structure (SMILES),control compared to the untreated check [1],inhibition of growth at 300 ppm [2],pest or weed control at 500 ppm [3],pest or weed control at 500 ppm [4],inhibition of growth at 300 ppm [5],inhibition of growth at 300 ppm [6],inhibition of growth at 300 ppm [7]
CCN(C)C=Nc1cc(C)c(N=S(C)(=O)c2ccccc2)cc1C (centres unmarked) [Compound 4],70%,–,–,–,–,–,–
CCN(C)C=Nc1cc(C)c(Oc2cccc(S(=O)(=NC(=O)C(F)(F)F)C(C)C)c2)cc1Cl (centres unmarked) [Compound 10],70%,–,–,–,–,–,–
CCN(C)C=Nc1cc(C)c(Oc2cccc(S(C)(=O)=NCc3ccccc3)c2)cc1Cl (centres unmarked) [Compound 21],–,> 70%,> 70%,> 70%,> 70%,–,–
CCN=S(=O)(CCC(C)C)c1cccc(Oc2cc(Cl)c(N=CN(C)CC)cc2C)c1 (centres unmarked) [Compound 25],70%,> 70%,–,–,–,> 70%,–
CCN(C)C=Nc1cc(C)c(S(=O)(CC)=NC(=O)c2cccc(OC)c2)cc1Cl (centres unmarked) [Compound 50],–,> 70%,> 70%,> 70%,> 70%,–,–
CCN(C)C=Nc1cc(C)c(N=S(C)(=O)c2cccc(OC)c2)cc1C (centres unmarked) [Compound 74],–,–,> 70%,> 70%,–,> 70%,–
CCN(C)C=Nc1cc(C)c(N=S(=O)(CCC(C)C)c2cccc(OC)c2)cc1C (centres unmarked) [Compound 76],–,–,> 70%,> 70%,–,> 70%,–
CCN(C)C=Nc1cc(Br)c(N=S(=O)(CCC(C)C)c2cccc(OC)c2)nc1C (centres unmarked) [Compound 77],–,–,> 70%,> 70%,–,–,–
CCN(C)C=Nc1cc(C)c(S(=O)(CC(C)C)=Nc2cc(C(F)(F)F)cc(C(F)(F)F)c2)cc1Cl (centres unmarked) [Compound 85],–,–,> 70%,> 70%,–,–,–
CCN(C)C=Nc1cc(C)c(S(=O)(CC(C)C)=Nc2ccccc2)cc1Cl (centres unmarked) [Compound 86],–,–,> 70%,> 70%,–,> 70%,–
CCN(C)C=Nc1cc(Br)c(N=S(C)(=O)c2cccc(OC)c2)nc1C (centres unmarked) [Compound 87],–,–,–,> 70%,–,–,–
CCN(C)C=Nc1cc(C)c(S(C)(=O)=NCc2cccc(Cl)c2)cc1Cl (centres unmarked) [Compound 90],–,> 70%,> 70%,–,> 70%,–,> 70%
CCN(C)C=Nc1cc(C)c(Oc2cccc(S(C)(=O)=NCC(F)(F)F)c2)cc1C (centres unmarked) [Compound 96],–,> 70%,–,> 70%,> 70%,–,> 70%
CCN(C)C=Nc1cc(C)c(Oc2cccc(S(C)(=O)=Nc3ccccc3)c2)cc1C (centres unmarked) [Compound 98],–,–,–,> 70%,–,–,–
CCN(C)C=Nc1cc(C)c(S(=O)(CC(C)C)=Nc2ccsc2)cc1Cl (centres unmarked) [Compound 114],–,> 70%,> 70%,–,> 70%,–,> 70%
CCN(C)C=Nc1cc(C)c(Oc2ccc(S(C)(=O)=NCC3CC3)cc2)cc1Cl (centres unmarked) [Compound 127],–,> 70%,–,> 70%,–,> 70%,–
CCN(C)C=Nc1cc(C)c(Cc2ccc(S(C)(=N)=O)cc2)cc1C (centres unmarked) [Compound 128],–,> 70%,–,> 70%,–,> 70%,–
CCN=S(C)(=O)c1cccc(Nc2cc(C)c(N=CN(C)CC)cc2C)c1 (centres unmarked) [Compound 140],70%,> 70%,–,–,> 70%,–,> 70%
CCN(C)C=Nc1cc(C)c(Oc2cccc(S(=O)(=NCC3CC3)C(F)(F)F)c2)cc1Cl (centres unmarked) [Compound 144],70%,–,–,–,–,–,–
CCN(C)C=Nc1cc(C)c(Oc2ccccc2S(=N)(=O)C(F)(F)F)cc1Cl (centres unmarked) [Compound 147],70%,–,–,–,–,–,–
CCN=S(=O)(c1ccccc1Oc1cc(Cl)c(N=CN(C)CC)cc1C)C(F)(F)F (centres unmarked) [Compound 150],70%,> 70%,> 70%,–,> 70%,–,–
